Key:
Assay type in all cases: in vivo, Wistar rats
[1] = Prophylactic test: hepatotoxicity and renal function, serum biochemical index; conditions: FINA 0.8 mg/kg orally
Method: Male Wistar rats at 8 weeks of age (Samtako, Korea) were acclimated. When the rats weighed about 320 g on average (12 weeks old), they were divided into groups of 5. After removing the testis therefrom, the rats in one of the groups were allowed to revive for about 24 hours. Propionate testosterone was subcutaneously injected at a dose of 7 mg/kg into the castrated group and the normal group to induce prostate hypertrophy for 8 weeks (BPH-induced groups). After induction of prostate hypertrophy for 8 weeks, the rats were treated as follows. Along with testosterone injection, the bay leaf extracts were orally administered at predetermined doses (mg/kg) once a day (seven times a week) for 8 weeks. Separately, Finasteride, which is a commercially available therapeutic agent for benign prostatic hyperplasia, was orally administered to a positive control. For use in biochemical index analysis, blood samples were taken from the rats of all the groups through abdominal veins. The blood sample was coagulated for about 30 min and centrifuged at 10,000 rpm for 5 min to separate sera. The sera thus obtained were measured for liver function index (AST and ALT), lipoprotein levels (total cholesterol (T-CHO), HDL cholesterol (HDL-C), LDL cholesterol (LDL-C)), and kidney function index (creatine), using a biochemical analyzer (AU480, Beckman Coulter, USA) (Table 4).

[2] = test system: benign prostatic hyperplasia (testosterone-induced prostate hypertrophy); test: Therapeutic efficacy on benign prostatic hyperplasia: change in prostate weight and volume; conditions: FINA 0.8 mg/kg orally, BPH-induced rats, therapeutic test
Method: (§1) Male Wistar rats at 8 weeks of age (Samtako, Korea) were acclimated. When the rats weighed about 380 g on average (19 weeks old), they were divided into groups of 7.
(§2) After removing the testis therefrom, the rats in one of the groups were allowed to revive for about 24 hours. Propionate testosterone was subcutaneously injected at a dose of 5 mg/kg into the castrated group and the normal group to induce prostate hypertrophy for 8 weeks (BPH-induced groups). After induction of prostate hypertrophy for 8 weeks, the rats were treated as follows. Along with testosterone injection, the bay leaf extracts were orally administered at predetermined doses (mg/kg) once a day (seven times a week) for 8 weeks. Separately, Finasteride, which is a commercially available therapeutic agent for benign prostatic hyperplasia, was orally administered to a positive control.
After completion of the experiment, the rats of all the experimental groups were euthanized. The prostate tissues and main organs were excised therefrom and measured for weight and volume using an electronic scale for animal weights and a caliper (mm^3) (Table 1).

[3] = test system: benign prostatic hyperplasia (testosterone-induced prostate hypertrophy); test: Prophylactic effect on benign prostatic hyperplasia: change in prostate weight and volume; conditions: FINA 0.8 mg/kg orally, BPH-induced rats, prophylactic test
Method: Male Wistar rats at 8 weeks of age (Samtako, Korea) were acclimated. When the rats weighed about 320 g on average (12 weeks old), they were divided into groups of 5.
as §2, with “7” for “5”
After completion of the experiment, the rats of all the experimental groups were euthanized. The prostate tissues and main organs were excised therefrom and measured for weight and volume using an electronic scale for animal weights and a caliper (mm^3) (Table 3).

[4] = Therapeutic test: hepatotoxicity and renal function, serum biochemical index; conditions: FINA 0.8 mg/kg orally
Method: as §1, §2
For use in biochemical index analysis, blood samples were taken from the rats of all the groups through abdominal veins. The blood sample was coagulated for about 30 min and centrifuged at 10,000 rpm for 5 min to separate sera. The sera thus obtained were measured for liver function index (AST and ALT), lipoprotein levels (total cholesterol (T-CHO), HDL cholesterol (HDL-C), LDL cholesterol (LDL-C)), and kidney function index (creatine), using a biochemical analyzer (AU480, Beckman Coulter, USA) (Table 2).

CC(C)(C)NC(=O)[C@H]1CC[C@H]2[C@@H]3CC[C@H]4NC(=O)C=C[C@]4(C)[C@H]3CC[C@]12C [Finasteride]
ALT [1]: 51.6 U/L
AST [1]: 140.4 U/L
CRE [1]: 0.2 mg/dL
HDL [1]: 43.3 mg/dL
LDL [1]: 17.0 mg/dL
T-CHO [1]: 60.6 mg/dL
Kidney weight [2]: 0.65 g
Liver weight [2]: 10.36 g
Prostate volume [2]: 3459.59 mm^3
Prostate weight (b) [2]: 1.16 g
Ratio (b/a*100) [2]: 0.28%
Weight (a) [2]: 426.6 g
Kidney weight [3]: 0.58 g
Liver weight [3]: 8.09 g
Prostate volume [3]: 4626.31 mm^3
Prostate weight (b) [3]: 1.43 g
Ratio (b/a*100) [3]: 0.43%
Weight (a) [3]: 328.3 g
ALT [4]: 50.3 U/L
AST [4]: 83.1 U/L
CRE [4]: 0.3 mg/dL
HDL [4]: 43.6 mg/dL
LDL [4]: 14.1 mg/dL
T-CHO [4]: 70.7 mg/dL

Reference: patent US20220370537A1, “PHARMACEUTICAL COMPOSITION AND FUNCTIONAL HEALTH FOOD FOR TREATING BENIGN PROSTATIC HYPERPLASIA INCLUDING LAURUS NOBILIS AS ACTIVE INGREDIENT, AND METHOD OF TREATING BENIGN PROSTATIC HYPERPLASIA USING THE SAME” (KOSABIO INC., priority 2020, published 2022)
